Earlier results in patent publication US12497429B2, “Saponin-based vaccine adjuvants” (priority 2018, dated 2025).

Details: compared to vaccine alone

In the case of monophosphoryl lipid A [MPL], the “boost of serum Ab titers” value is given as 10-20 fold.
